Measured values: ChEMBL document CHEMBL5523727, “Discovery of KT-413, a Targeted Protein Degrader of IRAK4 and IMiD Substrates Targeting MYD88 Mutant Diffuse Large B-Cell Lymphoma” (J Med Chem, 2024)

Key:
Cereblon/Ikaros = Cereblon/Ikaros (Homo sapiens, UniProt Q96SW2+Q13422); assay: PROTAC activity at CRBN/Ikaros in human OCI-Ly10 cells assessed as induction of Ikaros degradation measured after 24 hrs by MSD assay; type: cell-based
[1] = biological target: Protein cereblon/Interleukin-1 receptor-associated kinase 4 (Homo sapiens, UniProt Q9NWZ3+Q96SW2); assay: PROTAC activity at CRBN/IRAK4 in human OCI-Ly10 cells assessed as induction of IRAK4 degradation measured after 24 hrs by MSD assay; type: cell-based
Protein cereblon/Interleukin-1 receptor-associated kinase 4, sequence (Q9NWZ3 whole entry): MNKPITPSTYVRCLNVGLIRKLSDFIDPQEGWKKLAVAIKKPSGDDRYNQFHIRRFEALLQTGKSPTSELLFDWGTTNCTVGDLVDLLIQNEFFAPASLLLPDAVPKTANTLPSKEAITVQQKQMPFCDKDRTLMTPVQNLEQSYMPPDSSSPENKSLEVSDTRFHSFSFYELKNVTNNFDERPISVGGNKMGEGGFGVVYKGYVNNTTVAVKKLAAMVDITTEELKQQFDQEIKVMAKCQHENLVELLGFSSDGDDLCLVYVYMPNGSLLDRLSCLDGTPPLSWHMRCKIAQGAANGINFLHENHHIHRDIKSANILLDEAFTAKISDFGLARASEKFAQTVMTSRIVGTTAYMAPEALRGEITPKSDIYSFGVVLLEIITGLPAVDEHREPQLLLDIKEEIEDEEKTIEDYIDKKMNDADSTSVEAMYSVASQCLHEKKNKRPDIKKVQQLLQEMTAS
Protein cereblon/Interleukin-1 receptor-associated kinase 4, sequence (Q96SW2 whole entry): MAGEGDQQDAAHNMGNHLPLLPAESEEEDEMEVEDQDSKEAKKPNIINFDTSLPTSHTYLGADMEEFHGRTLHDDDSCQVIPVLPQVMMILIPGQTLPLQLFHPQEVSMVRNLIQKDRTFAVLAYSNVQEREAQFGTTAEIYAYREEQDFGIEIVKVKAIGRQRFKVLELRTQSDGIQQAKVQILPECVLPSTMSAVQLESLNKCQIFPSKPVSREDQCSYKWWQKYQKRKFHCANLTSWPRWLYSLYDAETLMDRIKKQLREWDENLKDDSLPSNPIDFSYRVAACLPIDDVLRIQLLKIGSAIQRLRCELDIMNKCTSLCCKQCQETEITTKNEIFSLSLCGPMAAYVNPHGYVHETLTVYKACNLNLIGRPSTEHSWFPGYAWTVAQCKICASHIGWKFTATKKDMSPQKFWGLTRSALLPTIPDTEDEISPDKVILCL

[2] = Drug exposure in Non human primate administered as iv dose; type: ADME, organism-based; details: primates, in vivo
[3] = Half life in human plasma; type: ADME, cell-free
[4] = Half life in rat plasma; type: ADME, cell-free
[5] = Drug exposure in rat administered as iv bolus dose; type: ADME, organism-based; details: in vivo
[6] = Half life in Non human primate plasma; type: ADME, cell-free; details: primates
[7] = Half life in dog plasma; type: ADME, cell-free, Canis lupus familiaris
Protein cereblon = Protein cereblon (Homo sapiens, UniProt Q96SW2); assay: Binding affinity to CRBN (unknown origin) by HTRF assay
Protein cereblon, sequence (Q96SW2 whole entry): as above

[8] = AUC in rat at 5 mg/kg, po by LC-MS/MS analysis; type: ADME, organism-based; details: in vivo
[9] = Clearance in rat at 2 mg/kg, iv by LC-MS/MS analysis; type: ADME, organism-based; details: in vivo
[10] = Passive permeability of the compound in wild type MDCK cells across apical to basolateral side at 1 uM measured for 120 mins by LC-MS/MS analysis; type: ADME, cell-based, Canis lupus familiaris; details: dog, read-out: permeability
[11] = Volume of distribution at steady state in rat at 2 mg/kg, iv by LC-MS/MS analysis; type: ADME, organism-based; details: in vivo, read-out: Vdss
OCI-Ly10 = assay: Antiproliferative activity against human OCI-Ly10 cells measured after 4 days by CellTiter-Glo Luminescent Cell Viability Assay; type: functional, cell-based; details: Homo sapiens, OCI-Ly10, 96 h
[12] = Metabolic stability in rat liver microsomes assessed as intrinsic clearance at 1 uM measured upto 60 mins in presence of NADPH by UPLC/MS-MS analysis; type: ADME, Microsome; details: read-out: CLH
[13] = Half life in rat at 2 mg/kg, iv by LC-MS/MS analysis; type: ADME, organism-based; details: in vivo
[14] = Oral bioavailability in rat at 5 mg/kg by LC-MS/MS analysis; type: ADME, organism-based; details: in vivo
[15] = Metabolic stability in human liver microsomes assessed as intrinsic clearance at 1 uM measured upto 60 mins in presence of NADPH by UPLC/MS-MS analysis; type: ADME, Microsome; details: read-out: CLH

Cereblon/Ikaros, sequence (Q96SW2 whole entry): as above
Cereblon/Ikaros, sequence (Q13422 whole entry): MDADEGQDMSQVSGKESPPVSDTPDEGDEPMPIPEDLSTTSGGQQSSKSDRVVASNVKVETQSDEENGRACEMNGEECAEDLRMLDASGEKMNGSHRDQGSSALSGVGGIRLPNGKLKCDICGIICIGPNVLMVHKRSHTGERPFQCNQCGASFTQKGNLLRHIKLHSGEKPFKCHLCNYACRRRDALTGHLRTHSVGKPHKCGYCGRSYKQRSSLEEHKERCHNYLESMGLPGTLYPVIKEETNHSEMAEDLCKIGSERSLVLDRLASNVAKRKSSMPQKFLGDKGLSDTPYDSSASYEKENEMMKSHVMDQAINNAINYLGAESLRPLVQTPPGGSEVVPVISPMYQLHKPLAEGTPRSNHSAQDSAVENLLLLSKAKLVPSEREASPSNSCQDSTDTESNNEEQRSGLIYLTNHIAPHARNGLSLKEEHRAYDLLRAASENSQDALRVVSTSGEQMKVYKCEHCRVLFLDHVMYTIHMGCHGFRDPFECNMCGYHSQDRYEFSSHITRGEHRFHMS

Drug uptake [2]	half-life [3]	half-life [4]	Drug uptake [5]	half-life [6]	half-life [7]	IC50 (Protein cereblon)	Compound	DC50 (Cereblon/Ikaros)	DC50 [1]	AUC [8]	clearance [9]	Papp A→B at 2 h, 1 µM [10]	Vd [11]	IC50 (OCI-Ly10)	microsomal CLint at 1 µM [12]	half-life [13]	bioavailability [14]	microsomal CLint at 1 µM [15]
52%	4.03 h	2.15 h	57%	3.35 h	2.58 h	3 nM	CC(C)(O)c1cc2nc([C@H]3CC[C@H](CN4CC5(CC(CCNc6cccc7c6C(=O)N([C@H]6CCC(=O)NC6=O)C7=O)C5)C4)CC3)sc2cc1NC(=O)c1cccc(C(F)(F)F)n1	2 nM	6.3 nM	–	–	–	–	–	–	–	–	–
–	–	–	–	–	–	–	COc1cc2nc([C@H]3CC[C@H](CN4CC5(CC(CCNc6cccc7c6C(=O)N(C6CCC(=O)NC6=O)C7=O)C5)C4)CC3)sc2cc1NC(=O)c1cccc(C(F)(F)F)n1 (stereo not given in full)	14 nM	35 nM	2.5 µM·h	4.8 mL/min/kg	0.18 ×10⁻⁶ cm/s	9.7 L/kg	72 nM	1 µL/min/mg	24 h	23%	1.5 µL/min/mg
